Test results: US10010541B2, “Modulation of tissue transglutaminase activation in disease” (The Board of Trustees of the Leland Stanford Junior …, priority 2014, dated 2018)

System: proinflammatory cytokines IL-6, PAI-1 and MIP1α
Experiment: circulating proinflammatory cytokines in LPS-induced murine sepsis (ELISA)
Format: in vivo, mice
Experimental: FIG. 3: The TG2 inhibitor CK996 reduces the proinflammatory cytokine load in septic mice at doses as low as 1.5 mg/kg: The graphs display the absolute circulating levels of the proinflammatory cytokines IL-6, PAI-1 and MIP1α in septic male BL6 mice as a function of the dose of intraperitoneally administered CK996 or ERW1041E. In each graph, the right y-axis depicts the relative levels of the respective cytokines over their background level in our control cohort. All septic mice in this study received lipopolysaccharide (LPS, 5 mg/kg i.v., at t=0) and either a TG2 inhibitor (CK996 or ERW1041E at 50, 15, 5.0 and 1.5 mg/kg i.p., at t=0 and 60 min) in vehicle (PBS with 5% DMSO, 2% Tween-80 and 2.5% hydroxypropyl-beta-cyclodextrin) or, for the septic control cohort, vehicle alone. An additional cohort defining the baseline cytokine levels received only intravenous vehicle and intraperitoneal inhibitor vehicle, respectively. At 3 hours the mice were euthanized and plasma collected in lithium heparin tubes. The levels of the respective proinflammatory cytokines were quantified using commercial ELISA kits according to the manufacturers' instructions. […]
Having established that intraperitoneal administration of CK996 could suppress TG2 activity in septic mice, we next sought to determine whether this pharmacologic intervention had any effect on the circulating levels of the key proinflammatory cytokines in sepsis. To this end, we administered CK996 in doses of 1.5, 5.0, 15 or 50 mg/kg intraperitoneally to septic mice (5 mg/kg LPS, iv) and measured the level of the proinflammatory cytokines IL-6, PAI-1 and MIP1α in plasma that was collected at 3 hours after infusion of LPS.
We therefore co-administered recombinant human thioredoxin protein (10 mg/kg, ip) along with CK996 (50 mg/kg, ip) to septic mice (5 mg/kg, iv) and quantified the load of proinflammatory cytokines as above.

Compound: O=C(N[C@@H]1C[C@@H](C(=O)NC[C@@H]2CC(Br)=NO2)N(C(=O)OCc2cnc3ccccc3c2)C1)c1cccnc1 [Compound 5, (2S,4R)-quinolin-3-ylmethyl 2-((((S)-3-bromo-4,5-dihydroisoxazol-5-yl)methyl)carbamoyl)-4-(nicotinamido)pyrrolidine-1-carboxylate]
- circulating levels of IL-6, PAI-1 and MIP1α (septic mice (LPS 5 mg/kg iv), all doses tested (1.5, 5.0, 15 or 50 mg/kg ip), plasma at 3 hours): dramatically reduced
- dose that reduces the proinflammatory cytokine load (septic mice, ip at t=0 and 60 min): ≤ 1.5 mg/kg
